Measurements taken from patent publication EP0486921A1, “N-acetyl-L-cysteine magnesium salt and pharmaceutical compositions containing it” (ZAMBON GROUP S.p.A., priority 1990, dated 1992).
Structures can show the parent of a compound that is named as a salt.

How the values were obtained:
pH of aqueous solution = format: physicochemical; details: 1 % aqueous solution
Excerpt: pH (1 % aqueous solution) = 5.35

Solubility in water = format: physicochemical
Excerpt: solubility in water: about 50%

anesthetized guinea pigs = details: guinea pig, in vivo
Protocol: The experiments were carried out according to the Konzett and Rössler technique [Arch. Exp. Patol. Pharmakol., 195, 71, (1940)] in anesthetized guinea pigs, where the potential increase in total airway resistance induced by the tested compounds was registered as a change in air overflow.
Male guinea pigs (500-600 g body weight) were anesthetized with ethylurethane (1.25 g/kg/i.p.) and the anesthesia was maintained by additional doses of ethylurethane given by intravenous route.
A catheter was inserted into the jugular vein for the administration of histamine.
The guinea pigs were subjected to forced ventilation at constant volume and at 72 breaths/minute.
Basal overflow value was set up to 8 cm H20.
Equimolecular doses of N-acetyl-L-cysteine in the form of free acid, lysine salt, calcium salt and magnesium salt [(NAC)2Mg] were administered as a micronized powder in trachea by forced insufflation.
The bronchoconstrictive effect was evaluated as the equivalent dose of histamine causing the same change in air overflow.
In control experiments the effect of forced insufflation of lactose was evaluated.

predisposed subjects = details: the patent says tested doses were much lower than therapeutically useful doses; cited from earlier work

Structure (SMILES)	pH (pH of aqueous solution)	solubility (Solubility in water)	Histamine dose X-±S.E. (dose of hystamine causing a bronchospasm equivalent to the change in air overflow) (anesthetized guinea pigs)	bronchoconstrictive effect compared with N-acetyl-L-cysteine (anesthetized guinea pigs)	induction of bronchospasm (predisposed subjects)
CC(=O)N[C@@H](CS)C(=O)O [(NAC)2Mg, N-acetyl-L-cysteine magnesium salt]	5.35	~500 mg/mL	3.96±0.28 ^(**) µg/kg/i.v.	significantly lower	
CC(=O)N[C@@H](CS)C(=O)O [NAC calcium salt]			7.03±1.48 µg/kg/i.v.	not significantly different	
CC(=O)N[C@@H](CS)C(=O)O [NAC lysine salt]			4.53±0.40 µg/kg/i.v.		does not induce bronchospasm
CC(=O)N[C@@H](CS)C(=O)O [NAC, N-acetyl-L-cysteine]			5.81±0.93 µg/kg/i.v.		
